Reference: PMC5400565, “Real-time near-infrared fluorescence imaging using cRGD-ZW800-1 for intraoperative visualization of multiple cancer types” (Oncotarget, 2017)

Columns and labels:
[1] = molecular target: T1, 5-hydroxytryptamine (serotonin) receptor 2B (5-HT2B) (Homo sapiens, UniProt P41595); assay: Off-target screening (Eurofins Cerep), 5-HT2B; assay type: binding; details: reference compound, format H, Ag
T1 construct: Eurofins Cerep SA (contract screening)
From the text: (§1) Off-target interactions are binding of tracers to other components on the cell surface than the actual target site. These non-specific interactions are often of low affinity and easily missed, but can have significant effects. We outsourced the screening for in vitro for off-target interactions of cRGD-ZW800-1 to Eurofins Cerep SA, Le bois l’Evêque, France. They assessed the percentage of inhibition of a reference compound in 44 selected targets, including G protein-coupled receptors (GPCRs), transporters, ion channels, nuclear receptors, kinases and other non-kinase enzymes. These targets were recommended by four major pharmaceutical companies. The complete list is included in Supplementary Table 1 of the Supplementary Data. Each assay was performed twice using 10 μM cRGD-ZW800-1 and a reference compound. Inhibition higher than 50% was considered to represent a significant effect of cRGD-ZW800-1. Results showing between 20% and 50% were considered weak to moderate effects, while lower than 20% was not considered significant and mostly attributable to variability of the signal around the control level.

[2] = system: GABA channels BZD (central); assay: Off-target screening (Eurofins Cerep), BZD (central); assay type: binding; details: reference compound, format Ag
From the text: as §1

Na+ channel (site 2) = assay: Off-target screening (Eurofins Cerep), Na+ channel; assay type: binding; details: reference compound, format An
From the text: as §1

Adrenergic α1A = molecular target: T2, Adrenergic α1A (Homo sapiens, UniProt P35348); assay: Off-target screening (Eurofins Cerep), α1A; assay type: binding; details: reference compound, format H, An
T2 construct: Eurofins Cerep SA (contract screening)
T2 sequence (P35348 1-466): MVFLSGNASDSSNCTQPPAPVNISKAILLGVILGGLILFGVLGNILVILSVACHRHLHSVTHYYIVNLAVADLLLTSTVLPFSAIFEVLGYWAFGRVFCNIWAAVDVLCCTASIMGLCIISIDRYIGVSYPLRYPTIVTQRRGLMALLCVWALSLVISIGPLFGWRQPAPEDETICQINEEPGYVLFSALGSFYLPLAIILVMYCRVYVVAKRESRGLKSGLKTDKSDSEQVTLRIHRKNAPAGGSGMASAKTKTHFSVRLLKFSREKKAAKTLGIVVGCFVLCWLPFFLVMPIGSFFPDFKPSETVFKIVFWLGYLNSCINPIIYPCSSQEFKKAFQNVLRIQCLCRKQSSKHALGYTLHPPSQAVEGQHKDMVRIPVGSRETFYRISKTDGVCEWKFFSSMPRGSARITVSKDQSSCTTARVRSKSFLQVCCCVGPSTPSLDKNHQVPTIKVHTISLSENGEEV
From the text: as §1

KV channel = assay: Off-target screening (Eurofins Cerep), KV channel; assay type: binding; details: reference compound, format An
From the text: as §1

[3] = human, in vivo, iv; cited from earlier work
From the text: Besides interacting with extracellular matrix proteins, integrin αvβ3 can also modulate intracellular pathways essential for COX-2 expression. The inhibition of COX-2 as shown in the in vitro off-target screening may be the result of binding cRGD-ZW800-1 to integrin αvβ3.

T1 sequence (P41595 whole entry): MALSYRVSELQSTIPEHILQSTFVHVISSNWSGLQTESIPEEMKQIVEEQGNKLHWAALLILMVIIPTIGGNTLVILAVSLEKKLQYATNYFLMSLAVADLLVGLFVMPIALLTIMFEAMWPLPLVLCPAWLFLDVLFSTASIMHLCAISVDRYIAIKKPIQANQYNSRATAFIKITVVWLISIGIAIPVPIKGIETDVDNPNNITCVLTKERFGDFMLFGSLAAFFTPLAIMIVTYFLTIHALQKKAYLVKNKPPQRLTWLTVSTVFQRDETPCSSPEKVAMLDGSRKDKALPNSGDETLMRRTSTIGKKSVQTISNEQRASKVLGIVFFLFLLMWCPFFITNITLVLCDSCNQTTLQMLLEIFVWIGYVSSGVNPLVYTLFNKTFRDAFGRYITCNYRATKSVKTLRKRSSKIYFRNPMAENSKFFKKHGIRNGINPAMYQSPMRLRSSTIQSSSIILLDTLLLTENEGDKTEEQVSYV

Work on COc1cc(CC(C)N)c(OC)cc1I (racemic) [(±)DOI, reference compound] yielded an IC50 [1] of 4 nM.
For CN1C(=O)CN=C(c2ccccc2)c2cc(Cl)ccc21 [Diazepam, reference compound], the IC50 [2] was 12 nM.
Compound COc1ccc(C(=O)O[C@H]2CC[C@@]3(C)[C@@H]4CC[C@H]5[C@]6(O)C[C@H](O)[C@@]7(O)[C@@H](CN8C[C@@H](C)CC[C@H]8[C@@]7(C)O)[C@]6(O)C[C@@]53O[C@]24O)cc1OC [Veratridine, reference compound] has an IC50 (Na+ channel (site 2)) of 6800 nM.
For COc1cccc(OC)c1OCCNCC1COc2ccccc2O1 (stereo not drawn) [WB 4101, reference compound], the IC50 (Adrenergic α1A) was 0.46 nM.
Alpha -dendrotoxin [reference compound] showed an IC50 (KV channel) of 0.23 nM.
In the case of cilengitide, the side effects [3] is given as “without serious side effects”.
